Experiment [1] has as its system coronary blood flow (left coronary artery). Briefly: Effect on coronary blood flow. The format is in vivo, mongrel dogs. The conditions noted are these: anesthetized dogs; for ED50 (effective dose in blood flow): injected into afferent cannula, increase in blood flow by nifedipine 10 μg taken as 100%; for Duration (time for which the half maximum response remained): coronary blood flow. As to the method:
The perfused flow was measured by means of an electromagnitic flow-meter. The test compound was dissolved in an aqueous solution containing 15% ethanol and 15% polyethylene glycol, and injected into the afferent cannula. […] The duration was measured as the time for which the half maximum response remained.

Experiment [2] concerns vertebral blood flow (right vertebral artery). The experiment in a line: Effect on vertebral blood flow. The class given is in vivo, mongrel dogs. The conditions noted are these: anesthetized dogs; for ED100 (effective dose in blood flow): injected into afferent tube, increase in blood flow by papaverine 100 μg taken as 100%; for Duration (time for which the half maximum response remained): vertebral blood flow. As to the method: Under the artificial ventilation, the right vertebral artery was perfused with the arterial blood from the left carotid artery through a short bypass. The perfused flow was measured by means of an electromagnetic flow-meter. The test compound was dissolved in an aqueous solution containing 0.1% dimethyl sulfoxide and 0.01% polyoxyethylene hydrogenated castor oil (cremophor EL®), and injected into the afferent tube. […] The duration was measured as the time for which the half maximum response remained.

In experiment [3] the test system is spontaneously hypertensive rats. The experiment in a line: Hypotensive activity (systolic blood pressure, indirect tail cuff method). The conditions noted are these: Rattus norvegicus; oral; before and at 1, 3, 5 and 7 hours; five male spontaneously hypertensive rats; from dose response curve; read-out: ED30 (effective dose which showed the maximum hypotension by 30 mmHg). The format is in vivo. As to the method: Five male spontaneously hypertensive rats were used for each experiment. Systolic blood pressure was determined using an indirect tail cuff method before and at 1, 3, 5 and 7 hours following the oral administration of the test compound.

For `COC(=O)C1=C(C)NC(C)=C(C(=O)OCCN(C)Cc2ccccc2)C1c1cccc([N+](=O)[O-])c1.Cl` (stereo not drawn) [Nicardipine, 2,6-Dimethyl-4-(m-nitrophenyl)-1,4-dihydropyridine-3,5-dicarboxylic acid-3-methylester-5-[2-(N-benzyl-N-methylamino)ethyl]ester hydrochloride, reference compound], in experiment [1], the “ED50 (effective dose in blood flow)” value was determined as 0.5 µg and the “Duration (time for which the half maximum response remained)” value stood at 3.0 min. In experiment [2], the “ED100 (effective dose in blood flow)” value is 0.4 µg and the “Duration (time for which the half maximum response remained)” value worked out at 1.0 min. The ED (30 mmHg) in experiment [3] was 5 mg/kg.

Consider `COC(=O)C1=C(C)NC(C)=C(C(=O)OC)C1c1ccccc1[N+](=O)[O-]` [Nifedipine], for which the “ED50 (effective dose in blood flow)” value in experiment [1] was 0.5 µg.

As to `COc1ccc(Cc2nccc3cc(OC)c(OC)cc23)cc1OC` [Papaverine, reference compound], in experiment [2], the “ED100 (effective dose in blood flow)” value turned out to be 100 µg.

As to `COC(=O)C1=C(C)NC(C)=C(C(=O)OC(CN(C)Cc2ccccc2)c2ccco2)C1c1cccc([N+](=O)[O-])c1.Cl` (stereo not drawn) [Test Compound A, 2,6-Dimethyl-4-(m-nitrophenyl)-1,4-dihydropyridine-3,5-dicarboxylic acid-3-methylester-5-[2-(N-benzyl-N-methylamino)-1-(2-furyl)ethyl]ester hydrochloride], in experiment [1], the “ED50 (effective dose in blood flow)” value amounted to 1.5 µg and the “Duration (time for which the half maximum response remained)” value was found to be 15.0 min. In experiment [2], the “ED100 (effective dose in blood flow)” value stood at 1.0 µg and the “Duration (time for which the half maximum response remained)” value was found to be 11.0 min. The ED (30 mmHg) in experiment [3] came to 1.3 mg/kg.

For the molecule `COC(=O)C1=C(C)NC(C)=C(C(=O)OC(CN(C)Cc2ccccc2)c2cccs2)C1c1cccc([N+](=O)[O-])c1.Cl` (stereo not drawn) [Test Compound B, 2,6-Dimethyl-4-(m-nitrophenyl)-1,4-dihydropyridine-3,5-dicarboxylic acid-3-methylester-5-[2-(N-benzyl-N-methylamino)-1-(2-thienyl)ethyl]ester hydrochloride], in experiment [2], the “ED100 (effective dose in blood flow)” value came out at 1.8 µg and the “Duration (time for which the half maximum response remained)” value was found to be 22.5 min. In addition, the ED (30 mmHg) in experiment [3] worked out at 1 mg/kg.
